As a reminder, the melting point is the temperature, or range, at which the solid turns liquid. The IC50 is the point on the concentration scale where inhibition reaches its midpoint.

Molecules are shown by their SMILES. “And” between values parts separate entries of the source, which are not always exact repeats. Identical values can stand only once. Like-named read-outs stand apart in the source and are kept apart here.

A short description of one data set: in vitro. The conditions noted are these: Chlorocebus aethiops (African green monkey).
Data set [1] deals with SARS-CoV-2 (hCoV-19/Egypt/NRC-03/2020). As to the kind of experiment: Anti-SARS-CoV-2 IC50 determination in Vero-E6 cells (inhibition of virus-induced cytopathic effect, crystal violet). In kind it is cell-based. The conditions noted are these: for IC50: Severe acute respiratory syndrome coronavirus 2, Vero C1008, SARS-CoV-2 in Vero-E6 cells, 72 h, CPE reduction; for SI: selectivity index, ratio of CC50 relative to IC50. In general terms: Protection from cytopathic effect is a common read-out in antiviral testing.

Data set [2] has the same test system. Also on record: method as in PMID 34775204. The conditions noted are these: standard reference, cited from earlier work.
The next data set relates to VERO-E6 cells. Also noted: method as in PMID 34775204. The conditions noted are these: standard reference; cited from earlier work.

As for `O=C1C(=Cc2cn(CCCOc3cc(C(F)(F)F)nc4ccccc34)c3ccccc23)SC(=S)N1CCc1ccccc1` (mixture of isomers) [9a, (E/Z)-3-Phenethyl-2-thioxo-5-((1-(3-((2-(trifluoromethyl)quinolin-4-yl)oxy)propyl)-1H-indol-3-yl)methylene)thiazolidin-4-one], the melting point was in the range of 185 to 187 °C. Besides, the CC50 at 24 h in the data set “in vitro” came out at 210 µg/mL.
In the same order, the values of `O=C1C(=Cc2cn(CCCOc3cc(C(F)(F)F)nc4ccc(Cl)cc34)c3ccccc23)SC(=S)N1CCc1ccccc1` (mixture of isomers) [9b, (E/Z)-5-((1-(3-((6-Chloro-2-(trifluoromethyl)quinolin-4-yl)oxy)propyl)-1H-indol-3-yl)methylene)-3-phenethyl-2-thioxothiazolidin-4-one] are 176 to 179 °C and 227 µg/mL.
`Cc1ccc2nc(C(F)(F)F)cc(OCCCn3cc(C=C4SC(=S)N(CCc5ccccc5)C4=O)c4ccccc43)c2c1` (mixture of isomers) [9c, (E/Z)-5-((1-(3-((6-Methyl-2-(trifluoromethyl)quinolin-4-yl)oxy)propyl)-1H-indol-3-yl)methylene)-3-phenethyl-2-thioxothiazolidin-4-one] showed a melting point of 182 to 184 °C. The molecule further returned a CC50 at 24 h in the data set “in vitro” of 310 µg/mL.
`O=C1C(=Cc2cn(CCCCOc3cc(C(F)(F)F)nc4ccccc34)c3ccccc23)SC(=S)N1CCc1ccccc1` (mixture of isomers) [9d, (E/Z)-3-Phenethyl-2-thioxo-5-((1-(4-((2-(trifluoromethyl)quinolin-4-yl)oxy)butyl)-1H-indol-3-yl)methylene)thiazolidin-4-one] yielded a melting point of 157 to 159 °C. Further, in data set [1], the IC50 is 257 µg/mL and 407 µM; the SI stood at 1.1. Moreover, the CC50 at 24 h in the data set “in vitro” is 294 µg/mL and 465 µM.
In turn, `O=C1C(=Cc2cn(CCCCOc3cc(C(F)(F)F)nc4ccc(F)cc34)c3ccccc23)SC(=S)N1CCc1ccccc1` (mixture of isomers) [9e, (E/Z)-5-((1-(4-((6-Fluoro-2-(trifluoromethyl)quinolin-4-yl)oxy)butyl)-1H-indol-3-yl)methylene)-3-phenethyl-2-thioxothiazolidin-4-one] returned a melting point of 160 to 162 °C. In data set [1], the IC50 was 276 µg/mL and 424 µM; the SI was 1.1. Also, the CC50 at 24 h in “in vitro” is 305 µg/mL and 469 µM.
For the molecule `O=C1C(=Cc2cn(CCCCOc3cc(C(F)(F)F)nc4ccc(Cl)cc34)c3ccccc23)SC(=S)N1CCc1ccccc1` (mixture of isomers) [9f, (E/Z)-5-((1-(4-((6-Chloro-2-(trifluoromethyl)quinolin-4-yl)oxy)butyl)-1H-indol-3-yl)methylene)-3-phenethyl-2-thioxothiazolidin-4-one], the melting point lay in the range of 181 to 183 °C. Besides, in data set [1], the IC50 was 109 µg/mL and 164 µM; the SI was found to be 3.4. In addition, in “in vitro”, the CC50 at 24 h was 370 µg/mL and 555 µM.
As to `Cc1ccc2nc(C(F)(F)F)cc(OCCCCn3cc(C=C4SC(=S)N(CCc5ccccc5)C4=O)c4ccccc43)c2c1` (mixture of isomers) [9g, (E/Z)-5-((1-(4-((6-Methyl-2-(trifluoromethyl)quinolin-4-yl)oxy)butyl)-1H-indol-3-yl)methylene)-3-phenethyl-2-thioxothiazolidin-4-one], the melting point was in the range of 175 to 177 °C. For the same molecule, in “in vitro”, the CC50 at 24 h amounted to 591 µg/mL.
In the same order, the values of `O=C1C(=Cc2cn(CCCCCCOc3cc(C(F)(F)F)nc4ccccc34)c3ccccc23)SC(=S)N1CCc1ccccc1` (mixture of isomers) [9h, (E/Z)-3-Phenethyl-2-thioxo-5-((1-(6-((2-(trifluoromethyl)quinolin-4-yl)oxy)hexyl)-1H-indol-3-yl)methylene)thiazolidin-4-one] are 180 to 182 °C and 258 µg/mL.
Molecule `O=C1C(=Cc2cn(CCCCCCOc3cc(C(F)(F)F)nc4ccc(F)cc34)c3ccccc23)SC(=S)N1CCc1ccccc1` (mixture of isomers) [9i, (E/Z)-5-((1-(6-((6-Fluoro-2-(trifluoromethyl)quinolin-4-yl)oxy)hexyl)-1H-indol-3-yl)methylene)-3-phenethyl-2-thioxothiazolidin-4-one] yielded a melting point of 185 to 187 °C. This molecule displayed a CC50 at 24 h in “in vitro” of 262 µg/mL.
Take `O=C1C(=Cc2cn(CCCCCCOc3cc(C(F)(F)F)nc4ccc(Cl)cc34)c3ccccc23)SC(=S)N1CCc1ccccc1` (mixture of isomers) [9j, (E/Z)-5-((1-(6-((6-Chloro-2-(trifluoromethyl)quinolin-4-yl)oxy)hexyl)-1H-indol-3-yl)methylene)-3-phenethyl-2-thioxothiazolidin-4-one]: the melting point is 184 to 186 °C. Moreover, the CC50 at 24 h in the data set “in vitro” came to 380 µg/mL.
Consider `Cc1ccc2nc(C(F)(F)F)cc(OCCCCCCn3cc(C=C4SC(=S)N(CCc5ccccc5)C4=O)c4ccccc43)c2c1` (mixture of isomers) [9k, (E/Z)-5-((1-(6-((6-Methyl-2-(trifluoromethyl)quinolin-4-yl)oxy)hexyl)-1H-indol-3-yl)methylene)-3-phenethyl-2-thioxothiazolidin-4-one], for which the melting point is 148 to 150 °C. For the same molecule, in data set [1], the IC50 is 160 µg/mL and 238 µM; the SI was determined as 1.3. Besides, the CC50 at 24 h in “in vitro” was 201 µg/mL and 299 µM.
The molecule `O=C1C(=Cc2cn(C/C=C/COc3cc(C(F)(F)F)nc4ccccc34)c3ccccc23)SC(=S)N1CCc1ccccc1` (mixture of isomers) [10a, (E/Z)-3-Phenethyl-2-thioxo-5-((1-((E)-4-((2-(trifluoromethyl)quinolin-4-yl)oxy)but-2-en-1-yl)-1H-indol-3-yl)methylene)thiazolidin-4-one] came in with a melting point of 179 to 181 °C. In addition, the CC50 at 24 h in “in vitro” came to 370 µg/mL.
In the same order, the values of `Cc1ccc2nc(C(F)(F)F)cc(OC/C=C/Cn3cc(C=C4SC(=S)N(CCc5ccccc5)C4=O)c4ccccc43)c2c1` (mixture of isomers) [10b, (E/Z)-5-((1-((E)-4-((6-Methyl-2-(trifluoromethyl)quinolin-4-yl)oxy)but-2-en-1-yl)-1H-indol-3-yl)methylene)-3-phenethyl-2-thioxothiazolidin-4-one] are 168 to 170 °C and 290 µg/mL.
As for `CCN(CCO)CCCC(C)Nc1ccnc2cc(Cl)ccc12` (stereo not shown) [Hydroxychloroquine], in data set [2] (anti-SARS-CoV-2), the IC50 was 29.2 µM. Moreover, the SI in data set [2] (ratio of CC50 relative to IC50) was 12.2. Besides, in the data set on VERO-E6 cells, the CC50 was 356 µM.

Values taken from publication PMC9501548, “Synthesis of Potential Antiviral Agents for SARS-CoV-2 Using Molecular Hybridization Approach” (Molecules, 2022).
